Experimental data as given in US12325697B2 (Nimbus Clio, Inc., priority 2021, dated 2025).

Assays:
[1] = biological target: Recombinant human Cbl-b (aa 36-427) (Homo sapiens (Human), UniProt Q13191); experiment: Cbl-b Biochemical Assay (TR-FRET); conditions: read-out: TR-FRET hCbl-b IC50
How it was run: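 IC50 from 4-parameter fit of % inhibition (DMSO max, reference-inhibitor min), duplicate ten-point series. Compound preincubated with 6 nM Cbl-b, then Src-Zap70 (1-2.5 nM)/0.5 mM ATP reaction 60 min RT; EDTA quench with labelled UBE2D2-Ub and streptavidin-terbium, 60 min, HTRF at 520 nm.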

[2] = biological target: Recombinant human c-Cbl (aa 47-435) (Homo sapiens (Human), UniProt P22681); experiment: c-Cbl Biochemical Assay (TR-FRET)
How it was run: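 TR-FRET binding of UBE2D2-Ub-Bodipy (100 nM) to biotinylated c-Cbl (aa 47-435, 6 nM) via Streptavidin-Tb, measured after c-Cbl activation by Src-Zap70 with 0.5 mM ATP (60-90 min RT, 30 min compound preincubation). Ten-point half-log dilutions, 1% DMSO; IC50 by 4-parameter fit of normalized inhibition.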

Chain of Recombinant human Cbl-b (aa 36-427) (Q13191 36-427): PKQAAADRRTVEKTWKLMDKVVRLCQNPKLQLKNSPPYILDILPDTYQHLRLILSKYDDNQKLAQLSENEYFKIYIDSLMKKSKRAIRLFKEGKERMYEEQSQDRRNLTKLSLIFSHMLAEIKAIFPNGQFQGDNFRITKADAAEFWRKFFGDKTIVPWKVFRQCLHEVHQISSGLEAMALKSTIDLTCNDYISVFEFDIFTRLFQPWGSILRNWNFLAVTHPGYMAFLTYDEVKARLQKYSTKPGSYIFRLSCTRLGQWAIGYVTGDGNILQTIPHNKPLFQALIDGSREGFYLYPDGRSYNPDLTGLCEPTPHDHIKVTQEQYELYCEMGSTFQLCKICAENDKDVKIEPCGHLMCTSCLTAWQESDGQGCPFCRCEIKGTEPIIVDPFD
Chain of Recombinant human c-Cbl (aa 47-435) (P22681 47-435): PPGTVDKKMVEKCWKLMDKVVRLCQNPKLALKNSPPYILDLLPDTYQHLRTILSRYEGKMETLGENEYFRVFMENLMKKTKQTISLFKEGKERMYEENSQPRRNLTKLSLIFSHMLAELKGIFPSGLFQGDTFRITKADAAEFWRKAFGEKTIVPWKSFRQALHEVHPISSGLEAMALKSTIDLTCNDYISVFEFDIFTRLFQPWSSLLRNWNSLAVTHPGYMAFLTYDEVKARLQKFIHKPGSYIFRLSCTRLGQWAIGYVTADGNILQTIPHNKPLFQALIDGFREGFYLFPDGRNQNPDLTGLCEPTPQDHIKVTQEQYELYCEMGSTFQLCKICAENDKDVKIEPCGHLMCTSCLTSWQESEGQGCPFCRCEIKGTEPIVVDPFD

Row | Structure (SMILES) | IC50 [1] [nM] | IC50 [2] [nM]
1 | Cn1cnnc1-c1cc(C#N)ccc1-c1cc(C2CC2)nc(N2Cc3ccc(CNC4CCOCC4)cc3C2=O)c1 [AMO-2, 4-(2-Cyclopropyl-6-{6-[(oxan-4-ylamino)methyl]-1-oxo-3H-isoindol-2-yl}pyridin-4-yl)-3-(4-methyl-1,2,4-triazol-3-yl)benzonitrile] | ≤ 200 | ≤ 200
2 | COCCNCc1cc2c(c(F)c1F)CN(c1cc(-c3ccc(C#N)cc3-c3nncn3C)cc(C3CC3)n1)C2=O [AMP-1, 4-[2-Cyclopropyl-6-(4,5-difluoro-6-{[(2-methoxyethyl)amino]methyl}-1-oxo-3H-isoindol-2-yl)pyridin-4-yl]-3-(4-methyl-1,2,4-triazol-3-yl)benzonitrile] | ≤ 200 | ≤ 200
3 | CN(Cc1cc(F)c2c(c1)C(=O)N(c1cc(-c3ccc(C#N)cc3-c3nncn3C)cc(C3CC3)n1)C2)C1CC1 [AMQ-2, 4-[2-Cyclopropyl-6-(6-{[cyclopropyl(methyl)amino]methyl}-4-fluoro-1-oxo-3H-isoindol-2-yl)pyridin-4-yl]-3-(4-methyl-1,2,4-triazol-3-yl)benzonitrile] | ≤ 200 | ≤ 200
4 | Cn1cnnc1-c1cc(C#N)ccc1-c1cc(C2CC2)nc(N2Cc3c(F)cc(CN4CCC[C@](C)(O)C4)cc3C2=O)c1 [AMR-2, 4-[2-Cyclopropyl-6-(4-fluoro-6-{[(3S)-3-hydroxy-3-methylpiperidin-1-yl]methyl}-1-oxo-3H-isoindol-2-yl)pyridin-4-yl]-3-(4-methyl-1,2,4-triazol-3-yl)benzonitrile] | ≤ 200 | ≤ 200
5 | Cn1cnnc1-c1cc(C#N)ccc1-c1cc(C2CC2)nc(N2Cc3c(F)cc(CN4CC5(COC5)C4)cc3C2=O)c1 [AMS-2, 4-[2-Cyclopropyl-6-(4-fluoro-6-{2-oxa-6-azaspiro [3.3]heptan-6-ylmethyl}-1-oxo-3H-isoindol-2-yl)pyridin-4-yl]-3-(4-methyl-1,2,4-triazol-3-yl)benzonitrile] | ≤ 200 | ≤ 200
6 | Cn1cnnc1-c1cc(C#N)ccc1-c1cc(C2CC2)nc(N2Cc3ccc(C(C)(C)NCC4COC4)cc3C2=O)c1 [AMT-2, 4-[2-Cyclopropyl-6-(6-{2-[(oxetan-3-ylmethyl)amino]propan-2-yl}-1-oxo-3H-isoindol-2-yl)pyridin-4-yl]-3-(4-methyl-1,2,4-triazol-3-yl) benzonitrile] | ≤ 200 | ≤ 200
7 | Cn1cnnc1-c1cc(C#N)ccc1-c1cc(C2CC2)nc(N2Cc3ccc(CNCC4(C)COC4)cc3C2=O)c1 [AMU-2, 4-{2-Cyclopropyl-6-[6-({[(3-methyloxetan-3-yl)methyl]amino}methyl)-1-oxo-3H-isoindol-2-yl]pyridin-4-yl}-3-(4-methyl-1,2,4-triazol-3-yl)benzonitrile] | ≤ 200 | ≤ 200
8 | Cn1cnnc1-c1cc(C#N)ccc1-c1cc(C2CC2)nc(N2Cc3ccc(CNC4COC4)cc3C2=O)c1 [AMV-2, 4-(2-Cyclopropyl-6-{6-[(oxetan-3-ylamino)methyl]-1-oxo-3H-isoindol-2-yl}pyridin-4-yl)-3-(4-methyl-1,2,4-triazol-3-yl)benzonitrile] | ≤ 200 | ≤ 200
9 | CN(Cc1cc(F)c2c(c1)C(=O)N(c1cc(-c3ccc(C#N)cc3-c3nncn3C)cc(C3CC3)n1)C2)CC1(O)CCC1 [AMW-2, 4-{2-Cyclopropyl-6-[4-fluoro-6-({[(1-hydroxycyclobutyl)methyl](methyl)amino}methyl)-1-oxo-3H-isoindol-2-yl]pyridin-4-yl}-3-(4-methyl-1,2,4-triazol-3-yl)benzonitrile] | ≤ 200 | ≤ 200
10 | Cn1cnnc1-c1cc(C#N)ccc1-c1cc(C2CC2)nc(N2Cc3c(F)cc(CN4CC[C@H]5C[C@H]54)cc3C2=O)c1 [AMX-3, 4-(2-{6-[(1R,5S)-2-Azabicyclo[3.1.0]hexan-2-ylmethyl]-4-fluoro-1-oxo-3H-isoindol-2-yl}-6-cyclopropylpyridin-4-yl)-3-(4-methyl-1,2,4-triazol-3-yl)benzonitrile] | ≤ 200 | ≤ 200
11 | Cn1cnnc1-c1cc(C#N)ccc1-c1cc(C2CC2)nc(N2Cc3c(F)cc(CN4CC[C@@H]5C[C@@H]54)cc3C2=O)c1 [AMY-1, 4-(2-{6-[(1S,5R)-2-Azabicyclo[3.1.0]hexan-2-ylmethyl]-4-fluoro-1-oxo-3H-isoindol-2-yl}-6-cyclopropylpyridin-4-yl)-3-(4-methyl-1,2,4-triazol-3-yl)benzonitrile] | ≤ 200 | ≤ 200
12 | COCCN(C)Cc1cc2c(c(F)c1F)CN(c1cc(-c3ccc(C#N)cc3-c3nncn3C)cc(C3CC3)n1)C2=O [AMZ-3, 4-[2-Cyclopropyl-6-(4,5-difluoro-6-{[(2-methoxyethyl)(methyl)amino]methyl}-1-oxo-3H-isoindol-2-yl)pyridin-4-yl]-3-(4-methyl-1,2,4-triazol-3-yl)benzonitrile] | ≤ 200 | ≤ 200
13 | Cn1cnnc1-c1cc(C#N)ccc1-c1cc(C2CC2)nc(N2Cc3ccc(CN4CC5CC5C4)cc3C2=O)c1 (stereo not drawn) [ANA-1, 4-[2-(6-{3-Azabicyclo[3.1.0]hexan-3-ylmethyl}-1-oxo-3H-isoindol-2-yl)-6-cyclopropylpyridin-4-yl]-3-(4-methyl-1,2,4-triazol-3-yl)benzonitrile] | ≤ 200 | ≤ 200
14 | Cn1cnnc1-c1cc(C#N)ccc1-c1cc(C2CC2)nc(N2Cc3c(F)cc(CNCC4COC4)cc3C2=O)c1 [ANB-1, 4-[2-Cyclopropyl-6-(4-fluoro-6-{[(oxetan-3-ylmethyl)amino]methyl}-1-oxo-3H-isoindol-2-yl)pyridin-4-yl]-3-(4-methyl-1,2,4-triazol-3-yl)benzonitrile] | ≤ 200 | ≤ 200
15 | C[C@@H]1[C@@H](O)CCN1Cc1cc(F)c2c(c1)C(=O)N(c1cc(-c3ccc(C#N)cc3-c3nncn3C)cc(C3CC3)n1)C2 [ANC-2, 4-[2-Cyclopropyl-6-(4-fluoro-6-{[(2R,3S)-3-hydroxy-2-methylpyrrolidin-1-yl]methyl}-1-oxo-3H-isoindol-2-yl)pyridin-4-yl]-3-(4-methyl-1,2,4-triazol-3-yl)benzonitrile] | ≤ 200 | ≤ 200
16 | Cn1cnnc1-c1cc(C#N)ccc1-c1cc(C2CC2)nc(N2Cc3ccc(CN4CCC5(CC5)C4)cc3C2=O)c1 [AND-1, 4-[2-(6-{5-Azaspiro[2.4]heptan-5-ylmethyl}-1-oxo-3H-isoindol-2-yl)-6-cyclopropylpyridin-4-yl]-3-(4-methyl-1,2,4-triazol-3-yl)benzonitrile] | ≤ 200 | ≤ 200
17 | Cn1cnnc1-c1cc(C#N)ccc1-c1cc(C2CC2)nc(N2Cc3c(cc(CNCC4COC4)c(F)c3F)C2=O)c1 [ANE-1, 4-[2-Cyclopropyl-6-(4,5-difluoro-6-{[(oxetan-3-ylmethyl)amino]methyl}-1-oxo-3H-isoindol-2-yl)pyridin-4-yl]-3-(4-methyl-1,2,4-triazol-3-yl)benzonitrile] | ≤ 200 | ≤ 200
18 | Cn1cnnc1-c1cc(C#N)ccc1-c1cc(C2CC2)nc(N2Cc3ccc(CNC4CCC4)cc3C2=O)c1 [ANI-2, 4-(2-{6-[(Cyclobutylamino)methyl]-1-oxo-3H-isoindol-2-yl}-6-cyclopropylpyridin-4-yl)-3-(4-methyl-1,2,4-triazol-3-yl)benzonitrile] | ≤ 200 | ≤ 200
19 | C[C@@H](NCc1ccc2c(c1)C(=O)N(c1cc(-c3ccc(C#N)cc3-c3nncn3C)cc(C3CC3)n1)C2)C1COC1 [ANJ-2, (R)-4-(2-Cyclopropyl-6-(6-(((1-(oxetan-3-yl)ethyl)amino)methyl)-1-oxoisoindolin-2-yl)pyridin-4-yl)-3-(4-methyl-4H-1,2,4-triazol-3-yl)benzonitrile] | ≤ 200 | ≤ 200
20 | C[C@H](NCc1ccc2c(c1)C(=O)N(c1cc(-c3ccc(C#N)cc3-c3nncn3C)cc(C3CC3)n1)C2)C1COC1 [ANK-2, (S)-4-(2-Cyclopropyl-6-(6-(((1-(oxetan-3-yl)ethyl)amino)methyl)-1-oxoisoindolin-2-yl)pyridin-4-yl)-3-(4-methyl-4H-1,2,4-triazol-3-yl)benzonitrile] | ≤ 200 | ≤ 200
21 | Cn1cnnc1-c1cc(C#N)ccc1-c1cc(C2CC2)nc(N2Cc3ccc(CNCC4(F)COC4)cc3C2=O)c1 [ANL-2, 4-{2-Cyclopropyl-6-[6-({[(3-fluorooxetan-3-yl)methyl]amino}methyl)-1-oxo-3H-isoindol-2-yl]pyridin-4-yl}-3-(4-methyl-1,2,4-triazol-3-yl)benzonitrile] | ≤ 200 | ≤ 200
22 | Cn1cnnc1-c1cc(C#N)ccc1-c1cc(C2CC2)nc(N2Cc3ccc(CNC(C)(C)C4COC4)cc3C2=O)c1 [ANM-2, 4-{2-Cyclopropyl-6-[6-({[2-(oxetan-3-yl)propan-2-yl]amino}methyl)-1-oxo-3H-isoindol-2-yl]pyridin-4-yl}-3-(4-methyl-1,2,4-triazol-3-yl)benzonitrile] | ≤ 200 | ≤ 200
23 | C[C@@H](NCC1COC1)c1ccc2c(c1)C(=O)N(c1cc(-c3ccc(C#N)cc3-c3nncn3C)cc(C3CC3)n1)C2 [ANN-2, (R)-4-(2-Cyclopropyl-6-(6-(1-((oxetan-3-ylmethyl)amino)ethyl)-1-oxoisoindolin-2-yl)pyridin-4-yl)-3-(4-methyl-4H-1,2,4-triazol-3-yl)benzonitrile] | ≤ 200 | ≤ 200
24 | C[C@H](NCC1COC1)c1ccc2c(c1)C(=O)N(c1cc(-c3ccc(C#N)cc3-c3nncn3C)cc(C3CC3)n1)C2 [ANO-1, (S)-4-(2-Cyclopropyl-6-(6-(1-((oxetan-3-ylmethyl)amino)ethyl)-1-oxoisoindolin-2-yl)pyridin-4-yl)-3-(4-methyl-4H-1,2,4-triazol-3-yl)benzonitrile] | ≤ 200 | ≤ 200
